Key:
D2 receptor = D2 receptor (Homo sapiens (Human), UniProt P14416); assay: Radioligand binding assay ([3H]-spiperone) on membranes of HEK293 EBNA cells expressing human D2 receptor; conditions: human receptor in HEK293 EBNA cells; 0.7 nM [3H]-spiperone
Experimental: (§1) HEK293 EBNA cells were transiently transfected with expression plasmids encoding for the human D2 or D3 or for the human 5-HT2A receptor, respectively. The cells were harvested 48 h post-transfection, washed three times with cold PBS and stored at −80° C. prior to use. The pellet was suspended in cold 50 mM Tris-HCl buffer containing 10 mM EDTA (pH 7.4) and was homogenized with a Polytron (Kinematica AG, Basel, Switzerland) for 20-30 sec at 12.000 rpm. After centrifugation at 48.000×g for 30 min at 4° C., the pellet was resuspended in cold 10 mM Tris-HCl buffer containing 0.1 mM EDTA (pH 7.4), homogenized, and centrifuged as above. This pellet was further resuspended in a smaller volume of ice cold 10 mM Tris-HCl buffer containing 0.1 mM EDTA (pH 7.4) and homogenized with a Polytron for 20-30 sec at 12.000 rpm. The protein content of this homogenate was determined with the Bio-Rad (Bradford) Protein Assay (Biorad Laboratories GmbH, München, Germany) according to the instructions of the manufacturer using gamma globulin as the standard. This homogenate was stored at −80° C. in aliquots and thawed immediately prior to use.
(§2) Aliquots of membrane preparations were thawed at RT, resuspended in assay buffer (D2, D3: 50 mM Tris-HCl, 120 mM NaCl, 5 mM MgCl2, 1 mM EDTA, 5 mM KCl, 1.5 mM CaCl2, pH=7.4; 5-HT2A: 50 mM Tris-HCl, 10 mM MgCl2, 1 mM EGTA, pH=7.4), homogenized with a Polytron for 20-30 sec at 12.000 rpm and adjusted to a final concentration of approximately 7.5 μg protein/well (D2, D3) and 15 μg protein/well (5-HT2A), respectively.
(§3) The nonspecific binding was determined with equally composed reaction mixtures in the presence of 10 μM unlabelled spiperone. Per well 45 μl of Microscint 40 (Perkin Elmer, Schwerzenbach, Switzerland) was added, plates for sealed, shaken for 20 min and counted for 3 min on a Topcount Microplate Scintillation Counter (Can berra Packard SA, Ziirich, Switzerland) with quenching correction.
(§4) The CPM value for each duplicate of a concentration of competing compound was averaged (y1), then the % specific binding was calculated according to the equation (((y1−non-specific)/(total binding−non-specific))×100). Graphs were plotted with the % specific binding using XLfit, a curve fitting program that iteratively plots the data using Levenberg-Marquardt algorithm. The single site competition analysis equation used was y=A+((B−A)/(1+((x/C)D))), where y is the % specific binding, A is the minimum y, B is the maximum y, C is the IC50, x is the log 10 of the concentration of the competing compound and D is the slope of the curve (the Hill Coefficient). […] The affinity constant (K) was calculated using the Cheng-Prusoff equation Ki=(IC50/1+([L]/Kd), where [L] is the concentration of radioligand and Kd is the dissociation constant of the radioligand at the receptor as determined by the saturation isotherm.

5-HT2A receptor = 5-HT2A receptor (Homo sapiens (Human), UniProt P28223); assay: Radioligand binding assay ([3H]-ketanserin) on membranes of HEK293 EBNA cells expressing human 5-HT2A receptor; conditions: read-out: 5HT2A Ki; human receptor in HEK293 EBNA cells; 1.1 nM [3H]-ketanserin
Experimental: as §1, §2, §3, §4

D3 receptor = D3 receptor (Homo sapiens (Human), UniProt P35462); assay: Radioligand binding assay ([3H]-spiperone) on membranes of HEK293 EBNA cells expressing human D3 receptor; conditions: read-out: D3 Ki; human receptor in HEK293 EBNA cells; 0.5 nM [3H]-spiperone
Chain of D3 receptor (P35462 whole entry): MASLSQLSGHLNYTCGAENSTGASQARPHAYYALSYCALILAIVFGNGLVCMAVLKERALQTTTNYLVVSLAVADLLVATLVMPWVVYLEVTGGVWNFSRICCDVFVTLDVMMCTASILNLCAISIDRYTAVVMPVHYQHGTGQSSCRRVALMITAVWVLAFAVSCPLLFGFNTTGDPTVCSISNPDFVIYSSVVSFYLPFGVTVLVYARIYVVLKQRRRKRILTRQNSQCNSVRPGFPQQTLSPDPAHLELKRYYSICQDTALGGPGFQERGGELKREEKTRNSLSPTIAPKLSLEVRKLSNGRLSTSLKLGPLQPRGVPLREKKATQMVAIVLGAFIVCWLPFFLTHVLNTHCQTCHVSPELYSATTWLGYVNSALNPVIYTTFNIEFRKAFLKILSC

Chain of D2 receptor (P14416 whole entry): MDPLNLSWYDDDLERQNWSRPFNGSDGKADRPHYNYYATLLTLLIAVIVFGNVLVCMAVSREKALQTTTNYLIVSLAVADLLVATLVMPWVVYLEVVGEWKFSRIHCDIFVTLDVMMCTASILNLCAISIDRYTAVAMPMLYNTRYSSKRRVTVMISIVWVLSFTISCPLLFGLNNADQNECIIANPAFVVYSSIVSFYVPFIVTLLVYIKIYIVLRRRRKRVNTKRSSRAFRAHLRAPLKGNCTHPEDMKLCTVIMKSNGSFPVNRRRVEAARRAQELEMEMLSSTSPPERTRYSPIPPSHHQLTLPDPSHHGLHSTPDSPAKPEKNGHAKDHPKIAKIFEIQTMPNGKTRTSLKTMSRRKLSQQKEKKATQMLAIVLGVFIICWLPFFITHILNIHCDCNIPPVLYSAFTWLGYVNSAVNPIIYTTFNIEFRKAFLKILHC

O=C(CC1CCOCC1)N[C@H]1CC[C@H](CCN2CCC(c3cccc4c3OCO4)CC2)CC1 [Example 53, Trans-N-{4-[2-(4-Benzo[1,3]dioxol-4-yl-piperidin-1-yl)-ethyl]-cyclohexyl}-2-(tetrahydro-pyran-4-yl)-acetamide] was tested. Which Ki (D2 receptor) did it give?
The Ki was 352 nM.

What about the Ki (5-HT2A receptor) of the same compound?
The Ki was 29.6 nM.

And the Ki (D3 receptor)?
Its Ki is 8.81 nM.

Which results are given for CC(C)CC(=O)N[C@H]1CC[C@H](CCN2CCC(c3cccc4c3OCO4)CC2)CC1 [Example 24, Trans-N-{4-[2-(4-Benzo[1,3]dioxol-4-yl-piperidin-1-yl)-ethyl]-cyclohexyl}-3-methyl-butyramide]?
Ki (D2 receptor): 239 nM; Ki (5-HT2A receptor): 28.5 nM; Ki (D3 receptor): 5 nM

From patent publication US8598357B2, “Benzodioxole piperidine compounds” (Hoffmann-La Roche Inc., priority 2011, dated 2013)
